The record followed here is patent publication US4503065A, “Antiinflammatory 4,5-diaryl 1-2-halo imidazoles” (E. I. Du Pont de Nemours and Company, priority 1982, dated 1985).

In the assay the test system is adjuvant-induced arthritis in rats. Nature of the assay: Established adjuvant-induced arthritis in rats (paw volume of uninjected left hind paw). The class given is in vivo, Charles River Lewis male rats. Particulars: for ED50: read-out: Adjuvant Arthritis ED50 (effective dose at which a 50% decrease from control paw volume is observed); for Percent decrease from control paw volume: 7 days.

The mark [1] stands for this setting: at 50 mg/kg daily dose, rat, oral gavage.
Where [2] appears, read: at 27 mg/kg daily dose, rat, oral gavage.
Where [3] appears, read: rat, oral gavage, daily for 7 days, paw volume one day after last dose, ED50 by visual-fit regression.

Where two headings read alike, the source gives them in different places.

Take `CC(=O)Oc1ccccc1C(=O)O` [Aspirin, reference compound]: the ED50 (Rattus norvegicus, po) stood at 305 mg/kg.
Regarding `Br.Fc1ccc(-c2nc(Br)[nH]c2-c2ccc(F)cc2)cc1` [Example 1, 2-Bromo-4,5-bis(4-fluorophenyl)-1H-imidazole, Hydrobromide], the “Percent decrease from control paw volume” value under setting [1] is on record as 33%.
Take `Br.COc1ccc(-c2nc(Br)[nH]c2-c2ccc(OC)cc2)cc1` [Example 2, 2-Bromo-4,5-bis(4-methoxyphenyl)-1H-imidazole, Hydrobromide]: the “Percent decrease from control paw volume” value under setting [2] was 46%.
For the compound `Br.Clc1ccc(-c2nc(Br)[nH]c2-c2ccc(Cl)cc2)cc1` [Example 3, 2-Bromo-4,5-bis(4-chlorophenyl)-1H-imidazole, Hydrobromide], under setting [3], the ED50 amounted to 5.2 mg/kg.
As for `Br.CSc1ccc(-c2nc(Br)[nH]c2-c2ccc(SC)cc2)cc1` [Example 4, 2-Bromo-4,5-bis(4-methylthiophenyl)-1H-imidazole, Hydrobromide], under setting [2], the “Percent decrease from control paw volume” value is 26%.
As to `COc1ccc(-c2nc(Cl)[nH]c2-c2ccc(OC)cc2)cc1.Cl` [Example 5, 2-Chloro-4,5-bis(4-methoxyphenyl)-1H-imidazole, Hydrochloride], under setting [2], the “Percent decrease from control paw volume” value stood at 17%.
With `COc1ccc(-c2nc(Cl)n(C)c2-c2ccc(OC)cc2)cc1` [Example 6, 2-Chloro-4,5-bis(4-methoxyphenyl)-1-methyl-1H-imidazole], under setting [2], the “Percent decrease from control paw volume” value is on record as 35%.
Take `CCOC(C)n1c(Cl)nc(-c2ccc(OC)cc2)c1-c1ccc(OC)cc1` (centres unmarked) [Example 7, 2-Chloro-1-(1-ethoxyethyl)-4,5-bis(4-methoxyphenyl)-1H-imidazole]: under setting [1], the “Percent decrease from control paw volume” value is given as 37%.
Regarding `CC(C)Cc1ccc(C(C)C(=O)O)cc1` (centres unmarked) [Ibuprofen, reference compound], the ED50 under setting [3] was 100 mg/kg.
In the case of `COc1ccc2c(c1)c(CC(=O)O)c(C)n2C(=O)c1ccc(Cl)cc1` [Indomethacin, reference compound], the ED50 (Rattus norvegicus, po) came out at 0.3 mg/kg.
Regarding `CCCCC1C(=O)N(c2ccccc2)N(c2ccccc2)C1=O` [Phenylbutazone, reference compound], the ED50 under setting [3] stood at 10 mg/kg.
